Data on 47 compounds can be found in patent publication US20070213359A1 (ACADIA Pharmaceuticals Inc., priority 2005, published 2007).

The target of one test is Ghrelin receptor (Homo sapiens, UniProt Q92847). Briefly: Receptor Selection and Amplification Technology (R-SAT) assay. In kind it is cell-based. On the set-up: expressed in transfected cells; host or cells: NIH3T3. As to conditions: […]; '—' not defined (nd used separately); read-out: RSAT pIC50 (converted).
Ghrelin receptor, sequence (Q92847 whole entry): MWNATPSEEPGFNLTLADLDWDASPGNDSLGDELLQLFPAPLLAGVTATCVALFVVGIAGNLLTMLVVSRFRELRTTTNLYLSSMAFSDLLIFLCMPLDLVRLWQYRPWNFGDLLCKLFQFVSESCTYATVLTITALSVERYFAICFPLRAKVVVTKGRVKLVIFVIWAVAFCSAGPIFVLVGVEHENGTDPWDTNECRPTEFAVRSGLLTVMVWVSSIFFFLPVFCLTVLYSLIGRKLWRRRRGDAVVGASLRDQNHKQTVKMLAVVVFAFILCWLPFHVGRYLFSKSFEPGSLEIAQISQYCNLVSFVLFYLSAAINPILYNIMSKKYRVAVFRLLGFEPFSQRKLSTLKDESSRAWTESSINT
Take `COc1cccc2c(C(=O)C3CC3)cn(CCCN3C4CCC3CC(CCc3ccccc3)C4)c12` (stereo not shown): the IC50 was 2.51 nM.

As for `CC(=O)c1cn(CCCN2CCCN(Cc3ccc(F)cc3)CC2)c2c(C)cccc12`, the IC50 is 2.51 nM.

For the compound `COc1cccc2c(C(=O)NCc3cccc(Cl)c3)cn(CCCN3CCCN(Cc4ccc(F)cc4)CC3)c12`, the IC50 is 3.16 nM.

For `COc1cccc2c(C(=O)Cc3ccccc3)cn(CCCN3C4CCC3CC(Oc3ccccc3Cl)C4)c12` (stereo not shown), the IC50 was 3.98 nM.

With `COc1cccc2c(C(=O)C3CC3)cn(CCCN3CCC4(CC3)CC(=O)c3ccccc3O4)c12`, the IC50 was 3.98 nM.

Regarding `CC(=O)c1cn(CCCN2CCN(c3nc(-c4cccnc4)no3)CC2)c2c(C)cccc12`, the IC50 is 200 nM.

`CCCCC[C@H]1C[C@H]2CC[C@@H](C1)N2CCCn1cc(C(=O)c2ccccc2)c2cccc(OC)c21`: the IC50 is 200 nM.

For `CCCCC[C@H]1C[C@H]2CC[C@@H](C1)N2CCCn1cc(C(=O)C2CC2)c2cccc(OC)c21`, the IC50 was 200 nM.

`COc1cccc2c(C(=O)c3ccccc3)cn(CCCN3CCC4(CC3)CC(=O)c3ccccc3O4)c12`: the IC50 was 200 nM.

Consider `COc1ccc2c(C(C)=O)cn(CCCN3CCC(c4ccccc4OC)CC3)c2c1`, for which the IC50 was 251 nM.

Take `COc1cccc2c(C(=O)c3ccccc3)cn(CCCN3C4CCC3CC(CC(=O)c3ccc(Cl)cc3)C4)c12` (stereo not shown): the IC50 was 251 nM.

For the compound `COc1cccc2c(C(=O)C3CC3)cn(CCCN3CCC(CCOc4ccc(Cl)cc4)CC3)c12`, the IC50 was 316 nM.

As for `COc1cccc2c(C(=O)NCc3cccc(Cl)c3)cn(CCCN3CCC(Oc4ccc(F)cc4)CC3)c12`, the IC50 is 316 nM.

As to `CCCCC[C@H]1C[C@H]2CC[C@@H](C1)N2CCCn1cc(C(C)=O)c2cccc(Cl)c21`, the IC50 was 316 nM.

Regarding `COc1cccc2c(C(=O)c3ccccc3)cn(CCCNC3Cc4ccccc4C3)c12`, the IC50 was 316 nM.

Consider `COc1cccc2c(C(=O)NCc3cccc(Cl)c3)cn(CCCN3C4CCC3CC(CC(=O)c3ccc(Cl)cc3)C4)c12` (stereo not shown), for which the IC50 was 316 nM.

Take `COc1cccc2c(C(=O)Cc3ccccc3)cn(CCCN3CCCC(Oc4ccc(Cl)cc4)C3)c12` (stereo not shown): the IC50 was 316 nM.

As for `CC(C)CC(=O)c1cn(CCCN2CCN(C(C)c3ccccc3)CC2)c2ccccc12` (stereo not shown), the IC50 is 398 nM.

On to `CC(=O)c1cn(CCCCN2CCC(Oc3ccccc3Cl)CC2)c2ccccc12`, for which the IC50 is 398 nM.

Turning to `COc1cccc2c(C(=O)C3CC3)cn(CCCN3CCC(C(=O)c4ccccc4)CC3)c12`, the IC50 was 398 nM.

As for `COc1cccc2c(C(=O)C3CC3)cn(CCCN3CCC(Oc4ccc(Cl)cc4)CC3)c12`, the IC50 is 501 nM.

As to `CC(=O)c1c(C)n(CCCN2CCCN(CCc3ccccc3)CC2)c2c(Br)cccc12`, the IC50 is 501 nM.

As to `CC(=O)c1cn(CCCN2C3CCC2CC(Oc2ccc(Cl)cc2)C3)c2ccccc12` (stereo not shown), the IC50 is 501 nM.

Consider `COc1cccc2c(C(=O)c3ccccc3)cn(CCCN3CCC(C(=O)c4ccccc4)CC3)c12`, for which the IC50 is 501 nM.

Regarding `COc1cccc2c(C(=O)C3CC3)cn(CCCN3CCC(c4nc5ccccc5s4)CC3)c12`, the IC50 is 501 nM.

As for `CCCOC1CCN(CCCn2cc(C(C)=O)c3ccccc32)CC1`, the IC50 was 631 nM.

Take `COc1ccccc1C1CCN(CCCn2cc(C(=O)NCc3cccc(Cl)c3)c3cccc(OC)c32)CC1`: the IC50 is 631 nM.

Consider `COc1ccc2[nH]c3c(c2c1)CCN(CCCn1cc(C(C)=O)c2ccc(OC)cc21)C3`, for which the IC50 was 794 nM.

Consider `COc1ccc2[nH]c3c(c2c1)CCN(CCCn1cc(C(C)=O)c2ccccc21)C3`, for which the IC50 is 794 nM.

As for `CCCCC1CCN(CCCCn2cc(C(C)=O)c3ccccc32)CC1`, the IC50 was 794 nM.

As to `COc1cccc2c(C(C)=O)cn(CCCN3CCC(N4CCOCC4)CC3)c12`, the IC50 was 1000 nM.

On to `CCC(=O)c1cn(CCCN2CCC(O)(Cc3ccccc3)CC2)c2ccccc12`, for which the IC50 was 1000 nM.

For the compound `CC(=O)c1cn(CCCN2C3CCC2CC(CC(=O)c2ccccc2)C3)c2c(Cl)cccc12` (stereo not shown), the IC50 is 1580 nM.

As to `COc1cccc2c(C(C)=O)cn(CCCN3CCN(CC(=O)N4CCOCC4)CC3)c12`, the IC50 was 1580 nM.

As to `COc1cccc2c(C(=O)NCc3cccc(Cl)c3)cn(CCCN3CCCC(Cc4ccccc4Cl)C3)c12` (stereo not shown), the IC50 was 2000 nM.

In the case of `COc1cccc2c(C(=O)C3CC3)cn(CCCN3C4CCC3CC(CC(=O)c3ccccc3)C4)c12` (stereo not shown), the IC50 was 2000 nM.

Regarding `COc1cccc2c(C(=O)NCc3cccc(Cl)c3)cn(CCCN3CCC(C(=O)c4ccccc4)CC3)c12`, the IC50 is 2510 nM.

With `CC(=O)c1cn(CCCN2CCC(C(=O)c3ccccc3)CC2)c2cc(Br)ccc12`, the IC50 was 2510 nM.

Take `CCCOC1CCN(CCn2cc(C(C)=O)c3ccccc32)CC1`: the IC50 was 3160 nM.

Consider `CCOC(=O)C1CCN(CCn2cc(C(C)=O)c3ccccc32)CC1`, for which the IC50 is 3980 nM.

`COc1ccccc1C1CCN(CCn2cc(C(C)=O)c3ccccc32)CC1`: the IC50 is 5010 nM.

`CCOC(=O)C1CCN(CCCn2cc(C(=O)C(F)(F)F)c3ccccc32)CC1`: the IC50 is 5010 nM.

Staying with this test, now noted: negative logarithm of ligand concentration causing 50% inhibition of constitutive receptor response; transfected NIH3T3 cells; '—' not defined (nd used separately); read-out: RSAT pIC50 (converted).
For the compound `CC(=O)c1cn(CCCN2CCCN(Cc3ccc(F)cc3)CC2)c2ncccc12`, the IC50 is 5.01 nM.

Take `CC(=O)c1cn(CCCN2CCCN(Cc3ccc(F)cc3)CC2)c2c(Br)cccc12`: the IC50 is 5.01 nM.

On to `CC(=O)c1cn(CCCN2C3CCC2CC(CCc2ccccc2)C3)c2c(C)cccc12` (stereo not shown), for which the IC50 is 6.31 nM.

Turning to `CC(=O)c1cn(CCCN2CCCN(Cc3ccc(F)cc3)CC2)c2c(Cl)cccc12`, the IC50 is 7.94 nM.

`CC(=O)c1cn(CCCN2CCCN(CCc3ccccc3)CC2)c2c(Cl)cccc12`: the IC50 was 10 nM.

Staying with this test, now noted: percent inhibition at saturating ligand, normalized to reference ligand Substance P analog = 100%; read-out: RSAT Eff(%).
Regarding `CC(=O)c1cn(CCCN2CCCN(Cc3ccc(F)cc3)CC2)c2ncccc12`, the Emax stood at 136%.

In the case of `CC(=O)c1cn(CCCN2CCCN(Cc3ccc(F)cc3)CC2)c2c(Br)cccc12`, the Emax worked out at 95%.

With `CC(=O)c1cn(CCCN2C3CCC2CC(CCc2ccccc2)C3)c2c(C)cccc12` (stereo not shown), the Emax came out at 105%.

As for `CC(=O)c1cn(CCCN2CCCN(Cc3ccc(F)cc3)CC2)c2c(Cl)cccc12`, the Emax turned out to be 115%.

`CC(=O)c1cn(CCCN2CCCN(CCc3ccccc3)CC2)c2c(Cl)cccc12`: the Emax was 96%.

As for `COc1ccc2[nH]c3c(c2c1)CCN(CCCn1cc(C(C)=O)c2ccc(OC)cc21)C3`, the Emax stood at 69%.

Consider `COc1ccc2[nH]c3c(c2c1)CCN(CCCn1cc(C(C)=O)c2ccccc21)C3`, for which the Emax was 76%.

Staying with this test, now noted: read-out: RSAT Eff(%).
`COc1cccc2c(C(=O)C3CC3)cn(CCCN3C4CCC3CC(CCc3ccccc3)C4)c12` (stereo not shown): the Emax is 109%.

Regarding `CC(=O)c1cn(CCCN2CCCN(Cc3ccc(F)cc3)CC2)c2c(C)cccc12`, the Emax amounted to 95%.

In the case of `COc1cccc2c(C(=O)NCc3cccc(Cl)c3)cn(CCCN3CCCN(Cc4ccc(F)cc4)CC3)c12`, the Emax was 113%.

With `COc1cccc2c(C(=O)Cc3ccccc3)cn(CCCN3C4CCC3CC(Oc3ccccc3Cl)C4)c12` (stereo not shown), the Emax came to 129%.

In the case of `COc1cccc2c(C(=O)C3CC3)cn(CCCN3CCC4(CC3)CC(=O)c3ccccc3O4)c12`, the Emax worked out at 106%.

As for `CC(=O)c1cn(CCCN2CCN(c3nc(-c4cccnc4)no3)CC2)c2c(C)cccc12`, the Emax worked out at 110%.

On to `CCCCC[C@H]1C[C@H]2CC[C@@H](C1)N2CCCn1cc(C(=O)c2ccccc2)c2cccc(OC)c21`, for which the Emax came out at 91%.

For `CCCCC[C@H]1C[C@H]2CC[C@@H](C1)N2CCCn1cc(C(=O)C2CC2)c2cccc(OC)c21`, the Emax came to 101%.

For `COc1cccc2c(C(=O)c3ccccc3)cn(CCCN3CCC4(CC3)CC(=O)c3ccccc3O4)c12`, the Emax was determined as 60%.

Turning to `COc1ccc2c(C(C)=O)cn(CCCN3CCC(c4ccccc4OC)CC3)c2c1`, the Emax turned out to be 72%.

As to `COc1cccc2c(C(=O)c3ccccc3)cn(CCCN3C4CCC3CC(CC(=O)c3ccc(Cl)cc3)C4)c12` (stereo not shown), the Emax was 143%.

Turning to `COc1cccc2c(C(=O)C3CC3)cn(CCCN3CCC(CCOc4ccc(Cl)cc4)CC3)c12`, the Emax turned out to be 89%.

Consider `COc1cccc2c(C(=O)NCc3cccc(Cl)c3)cn(CCCN3CCC(Oc4ccc(F)cc4)CC3)c12`, for which the Emax was 106%.

For `CCCCC[C@H]1C[C@H]2CC[C@@H](C1)N2CCCn1cc(C(C)=O)c2cccc(Cl)c21`, the Emax stood at 72%.

On to `COc1cccc2c(C(=O)c3ccccc3)cn(CCCNC3Cc4ccccc4C3)c12`, for which the Emax is 93%.

Consider `COc1cccc2c(C(=O)NCc3cccc(Cl)c3)cn(CCCN3C4CCC3CC(CC(=O)c3ccc(Cl)cc3)C4)c12` (stereo not shown), for which the Emax turned out to be 76%.

In the case of `COc1cccc2c(C(=O)Cc3ccccc3)cn(CCCN3CCCC(Oc4ccc(Cl)cc4)C3)c12` (stereo not shown), the Emax came to 86%.

As for `CC(C)CC(=O)c1cn(CCCN2CCN(C(C)c3ccccc3)CC2)c2ccccc12` (stereo not shown), the Emax was 106%.

On to `CC(=O)c1cn(CCCCN2CCC(Oc3ccccc3Cl)CC2)c2ccccc12`, for which the Emax amounted to 46%.

Consider `COc1cccc2c(C(=O)C3CC3)cn(CCCN3CCC(C(=O)c4ccccc4)CC3)c12`, for which the Emax came out at 100%.

As for `COc1cccc2c(C(=O)C3CC3)cn(CCCN3CCC(Oc4ccc(Cl)cc4)CC3)c12`, the Emax came out at 90%.

Take `CC(=O)c1c(C)n(CCCN2CCCN(CCc3ccccc3)CC2)c2c(Br)cccc12`: the Emax turned out to be 42%.

Consider `CC(=O)c1cn(CCCN2C3CCC2CC(Oc2ccc(Cl)cc2)C3)c2ccccc12` (stereo not shown), for which the Emax was 108%.

For the compound `COc1cccc2c(C(=O)c3ccccc3)cn(CCCN3CCC(C(=O)c4ccccc4)CC3)c12`, the Emax amounted to 102%.

`COc1cccc2c(C(=O)C3CC3)cn(CCCN3CCC(c4nc5ccccc5s4)CC3)c12`: the Emax worked out at 88%.

With `CCCOC1CCN(CCCn2cc(C(C)=O)c3ccccc32)CC1`, the Emax came to 112%.

Turning to `COc1ccccc1C1CCN(CCCn2cc(C(=O)NCc3cccc(Cl)c3)c3cccc(OC)c32)CC1`, the Emax was 127%.

`CCCCC1CCN(CCCCn2cc(C(C)=O)c3ccccc32)CC1`: the Emax turned out to be 113%.

For the compound `COc1cccc2c(C(C)=O)cn(CCCN3CCC(N4CCOCC4)CC3)c12`, the Emax was 95%.

Turning to `CCC(=O)c1cn(CCCN2CCC(O)(Cc3ccccc3)CC2)c2ccccc12`, the Emax was 73%.

On to `CC(=O)c1cn(CCCN2C3CCC2CC(CC(=O)c2ccccc2)C3)c2c(Cl)cccc12` (stereo not shown), for which the Emax was 85%.

Consider `COc1cccc2c(C(C)=O)cn(CCCN3CCN(CC(=O)N4CCOCC4)CC3)c12`, for which the Emax was 37%.

As to `COc1cccc2c(C(=O)NCc3cccc(Cl)c3)cn(CCCN3CCCC(Cc4ccccc4Cl)C3)c12` (stereo not shown), the Emax was 47%.

As for `COc1cccc2c(C(=O)C3CC3)cn(CCCN3C4CCC3CC(CC(=O)c3ccccc3)C4)c12` (stereo not shown), the Emax was found to be 86%.

Turning to `COc1cccc2c(C(=O)NCc3cccc(Cl)c3)cn(CCCN3CCC(C(=O)c4ccccc4)CC3)c12`, the Emax was 114%.

`CC(=O)c1cn(CCCN2CCC(C(=O)c3ccccc3)CC2)c2cc(Br)ccc12`: the Emax was 36%.

`CCCOC1CCN(CCn2cc(C(C)=O)c3ccccc32)CC1`: the Emax worked out at 40%.

Take `CCOC(=O)C1CCN(CCn2cc(C(C)=O)c3ccccc32)CC1`: the Emax was determined as 72%.

For the compound `COc1ccccc1C1CCN(CCn2cc(C(C)=O)c3ccccc32)CC1`, the Emax is 44%.

As for `CCOC(=O)C1CCN(CCCn2cc(C(=O)C(F)(F)F)c3ccccc32)CC1`, the Emax stood at 64%.
